Legend:
K562 cells = test: γH2AX Western blot (DNA damage in cells); type: cell-based; conditions: 10-20 μM, 4 hours, listed as Top60
Experimental: Cytotoxicity was evaluated by measuring LDH levels from cell culture media; (b) K562 cells were treated with either vehicle or 10-20 μM of Top60, Etoposide and ICRF187 for 4 hours. Whole cell lyses were collected to measure γH2AX levels with vinculin as the loading control; (c) K562 cells were treated with 0, 1, 5, 10, 15 and 20 μM of Top60, 20 μM Etoposide or 20 uM ICRF187 for 48 hours. Cell proliferation rates were determined by MTS assays; and (d) K562 cells were treated with 20 μM of Top60, Etoposide or ICRF187 for 0, 24, 48 and 72 hours. Cell proliferation rates were measured by MTS assays. All results were collected from three independent experiments.
Top60 is a catalytic inhibitor of Topo II To verify that our lead Compound 60(Top60), the formation of ds DNA breaks was assayed both in and outside of cells. To assess whether Top60 causes double stranded DNA breaks outside cells, supercoiled plasmid was incubated with and without Top60 in the presence of Topo II (FIG. 1d). […] Furthermore, H2AXγ protein expression was assessed by Western blot to determine if the lead compound could cause DNA damage in cells, and compared to Etoposide as a control (FIG. 3b). […] To determine if Top60 was capable of intercalating DNA, it was incubated with relaxed plasmid at increasing concentrations and compared with m-AMSA, a known intercalator. […]

Topo IIα [1] = biological target: T1, Topo IIα (Homo sapiens, UniProt P11388); test: DNA cleavage assay (linear DNA formation); type: biochemical; design: purchased TopoGENE (TopoGEN) TG2000H; conditions: supercoiled plasmid with Topo II, 50 μM
Experimental: (§1) DNA samples were separated by electrophoresis on 0.8% agarose gels and visualized by ethium bromide staining. The positions of K-DNA and decatenated (D) DNA products are marked by arrows. Experiments were repeated five times and the densitometry of the D bands were used to establish an inhibition curve to calculate IC50. (b) Supercoiled pHOT™ plasmid was incubated with human TOP2a in the presence of 50 μM Etopside, 50 uM ICRF193 or 0-50 μM of compound #60 (Top60) compound at 37° C. for 1 hour. DNA products were separated by electrophoresis on 1% agarose gels and visualized by ethium bromide staining. The positions of supercoiled (SC), nicked (N), and relaxed (R) DNA bands are marked by arrows. Experiments were repeated five times and the densitometiy of the SC bands were used to establish an inhibition curve to calculate IC50. (c) Supercoiled pHOT™ plasmid was incubated with Topoisomerase I prior to addition of either mAMSA or compound #60 (Top60) at concentrations of 0, 5, 10, 25 and 50 μM at 37° C. for 30 minutes. […]
(§2) Top60 is a catalytic inhibitor of Topo II To verify that our lead Compound 60(Top60), the formation of ds DNA breaks was assayed both in and outside of cells. […] Furthermore, H2AXγ protein expression was assessed by Western blot to determine if the lead compound could cause DNA damage in cells, and compared to Etoposide as a control (FIG. 3b). […]

pHOT plasmid DNA = test: DNA intercalating assay; conditions: 0, 5, 10, 25 and 50 μM, compared with m-AMSA
Experimental: as §1, §2

Topo IIα [2] = biological target: T1, Topo IIα; test: Chromatin fraction assay; type: cell-based; design: endogenous in cells; host or cells: K562; conditions: K562 cells, 0, 1 and 10 μM, 24 hours
Experimental: Whole cell lyses were collected and used to measure protein levels of TOP2α, TOP2β with β-Actin as a loading control; (b) K562 cells were treated with 0, 1, and 10 μM of Top60 for 24 hours. Protein lyses were collected from soluble nuclear extract, chromatin fraction or whole cell lysate. TOP2α and TOP2β protein levels were determined by immunoblotting with Lamin A/C, Histone H3 and β-Actin as loading controls; and (c) Etoposide-resistant K562 cell line was established by treating cells with 0.5 μM of Etoposide for 6 months. TOP2α, TOP2β, and β-actin protein levels were determined by immunoblotting. Etoposide-resistant K562 cells were treated with 0, 1, 10, 15 and 20 μM of Top60, Etoposide or ICRF187 for 48 hours. Cell proliferation rates were determined by MTS assays.
Thermal shift and chromatin fraction assays—In the thermal shift assays, cells were treated with vehicle or compound #60 (Top60) for 1 hour, split into equal aliquots to be heated at 37 to 46 degrees in a PCR machine. Protein lyses were collected to perform immunoblotting assays with Topo II antibodies. In the chromatin fraction assays, cells were treated with vehicle or compound #60 (Top60). Both soluble and chromatin associated proteins were fractioned following the protocol described by Wysocka J et al.^18. Protein lyses were collected to perform immunoblotting assays with Topo II antibodies. […]

human TOP2a = biological target: T2, human TOP2a (Homo sapiens, UniProt P11388); test: K-DNA decatenation assay; type: biochemical; conditions: 0-50 μM, 37° C., 1 hour
T2 construct: purchased TopoGENE (TopoGEN) TG1001 (assay kit)
Experimental: as §1, with “minutes. Reactions were stopped by 1% SDS at 37° C. for 15 minutes. DNA products were separated by electrophoresis on a 1% agarose gels and visualized by ethium bromide staining.” for “minutes.”

T1 sequence (P11388 whole entry): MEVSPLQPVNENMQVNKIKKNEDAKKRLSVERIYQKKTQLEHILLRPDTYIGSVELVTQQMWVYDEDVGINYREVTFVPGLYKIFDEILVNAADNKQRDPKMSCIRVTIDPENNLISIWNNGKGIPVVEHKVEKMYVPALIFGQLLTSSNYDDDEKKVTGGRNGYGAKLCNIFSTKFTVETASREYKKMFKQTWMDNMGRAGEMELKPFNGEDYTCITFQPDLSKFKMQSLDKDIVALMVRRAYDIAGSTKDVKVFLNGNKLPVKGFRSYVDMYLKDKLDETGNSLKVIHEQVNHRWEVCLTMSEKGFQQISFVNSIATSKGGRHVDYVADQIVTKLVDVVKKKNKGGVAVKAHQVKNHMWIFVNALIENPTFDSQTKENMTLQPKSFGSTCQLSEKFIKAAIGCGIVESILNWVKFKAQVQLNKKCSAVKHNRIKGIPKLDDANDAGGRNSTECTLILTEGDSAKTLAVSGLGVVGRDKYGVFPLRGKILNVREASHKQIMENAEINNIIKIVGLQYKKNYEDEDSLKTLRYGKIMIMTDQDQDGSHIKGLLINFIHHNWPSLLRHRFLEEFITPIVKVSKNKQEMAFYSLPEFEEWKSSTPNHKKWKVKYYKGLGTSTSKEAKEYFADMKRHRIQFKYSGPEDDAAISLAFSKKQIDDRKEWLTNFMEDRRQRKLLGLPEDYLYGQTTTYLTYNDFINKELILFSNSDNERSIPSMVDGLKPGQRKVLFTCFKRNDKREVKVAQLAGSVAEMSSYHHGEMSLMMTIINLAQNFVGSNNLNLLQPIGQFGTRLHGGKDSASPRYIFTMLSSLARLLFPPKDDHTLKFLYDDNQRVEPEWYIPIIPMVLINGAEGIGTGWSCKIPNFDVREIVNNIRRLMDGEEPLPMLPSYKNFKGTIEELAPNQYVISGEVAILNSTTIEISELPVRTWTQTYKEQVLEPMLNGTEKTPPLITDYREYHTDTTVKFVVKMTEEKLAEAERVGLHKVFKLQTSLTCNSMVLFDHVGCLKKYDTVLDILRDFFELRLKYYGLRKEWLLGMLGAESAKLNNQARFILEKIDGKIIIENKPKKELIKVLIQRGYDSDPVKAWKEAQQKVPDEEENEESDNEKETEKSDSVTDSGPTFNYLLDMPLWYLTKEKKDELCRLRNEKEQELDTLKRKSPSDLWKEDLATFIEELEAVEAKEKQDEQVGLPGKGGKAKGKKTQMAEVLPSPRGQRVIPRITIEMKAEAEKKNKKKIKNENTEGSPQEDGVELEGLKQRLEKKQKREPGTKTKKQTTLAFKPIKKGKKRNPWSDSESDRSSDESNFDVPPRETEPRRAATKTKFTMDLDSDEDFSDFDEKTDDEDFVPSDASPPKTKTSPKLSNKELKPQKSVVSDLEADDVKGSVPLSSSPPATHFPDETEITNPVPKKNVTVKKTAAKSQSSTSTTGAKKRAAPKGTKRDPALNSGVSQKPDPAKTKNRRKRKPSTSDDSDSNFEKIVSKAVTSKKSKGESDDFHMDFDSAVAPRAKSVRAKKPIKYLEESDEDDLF
T2 sequence (P11388 whole entry): as above

chromatin binding of Topo IIα (Topo IIα [2]): became unbound from chromatin
IC50 in the decatenation assay (human TOP2a): nanomolar
Structure (SMILES): O=C(Nc1ccc(Nc2ccccc2)cc1)c1ccc[nH]c1=S [Compound 60]
DNA damage in cells by H2AXγ protein level (K562 cells): do not cause DNA damage
formation of linear DNA (double stranded DNA breaks, poison activity) (Topo IIα [1]): no linear DNA is formed
formation of linear DNA (double stranded DNA breaks, poison activity) (Topo IIα [1]; listed as Top60): almost no band corresponding to linear DNA is formed
DNA intercalation (pHOT plasmid DNA): not an intercalator

Reference: US20210379077A1, “TOPOISOMERASE II CATALYTIC INHIBITOR COMPOUND THERAPEUTICS FOR CANCER TREATMENT, METHODS AND USES” (The University of British Columbia, priority 2018, published 2021)
